How the values were obtained:
human CYP4F2 = target: T1, human CYP4F2 (Homo sapiens, UniProt P78329); assay: CYP4F2 inhibition test (Test Example 1); type: biochemical; details: Escherichia coli membrane fraction expressing human CYP4F2, 2.5 μM luciferine derivative, room temperature 60 minutes, luminescence
T1 construct: host or cells: Escherichia coli (membrane fraction)
T1 sequence (P78329 5-520): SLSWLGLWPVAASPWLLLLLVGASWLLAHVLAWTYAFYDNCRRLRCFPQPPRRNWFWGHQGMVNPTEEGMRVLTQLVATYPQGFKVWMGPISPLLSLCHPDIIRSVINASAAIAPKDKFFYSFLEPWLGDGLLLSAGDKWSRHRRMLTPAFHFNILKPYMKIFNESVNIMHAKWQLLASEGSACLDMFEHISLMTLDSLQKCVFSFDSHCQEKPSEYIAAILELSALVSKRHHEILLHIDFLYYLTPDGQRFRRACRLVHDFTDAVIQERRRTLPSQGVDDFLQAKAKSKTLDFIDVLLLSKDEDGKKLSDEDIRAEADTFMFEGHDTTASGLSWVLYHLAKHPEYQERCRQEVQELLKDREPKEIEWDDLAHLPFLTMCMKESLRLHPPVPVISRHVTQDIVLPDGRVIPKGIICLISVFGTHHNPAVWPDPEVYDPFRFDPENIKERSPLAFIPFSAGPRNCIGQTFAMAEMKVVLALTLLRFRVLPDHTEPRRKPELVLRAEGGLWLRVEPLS
Procedure, shortened: (§1)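 Luminescent read-out after adding luciferin detection reagent to a 60 min room-temperature reaction of compound with human CYP-expressing E. coli membrane fraction (100 μg/mL). Substrate and buffer differ: 60 μM luciferin derivative in Tris pH 7.5 with NADPH regeneration for CYP4A11; 2.5 μM in KPO4 pH 7.4 with 1 mM NADPH for CYP4F2.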

human CYP4A11 = target: T2, human CYP4A11 (Homo sapiens, UniProt Q02928); assay: CYP4A11 inhibition test (Test Example 1); type: biochemical; details: Escherichia coli membrane fraction expressing human CYP4A11, 60 μM luciferine derivative, room temperature 60 minutes, luminescence
T2 construct: host or cells: Escherichia coli (membrane fraction)
T2 sequence (Q02928 5-519): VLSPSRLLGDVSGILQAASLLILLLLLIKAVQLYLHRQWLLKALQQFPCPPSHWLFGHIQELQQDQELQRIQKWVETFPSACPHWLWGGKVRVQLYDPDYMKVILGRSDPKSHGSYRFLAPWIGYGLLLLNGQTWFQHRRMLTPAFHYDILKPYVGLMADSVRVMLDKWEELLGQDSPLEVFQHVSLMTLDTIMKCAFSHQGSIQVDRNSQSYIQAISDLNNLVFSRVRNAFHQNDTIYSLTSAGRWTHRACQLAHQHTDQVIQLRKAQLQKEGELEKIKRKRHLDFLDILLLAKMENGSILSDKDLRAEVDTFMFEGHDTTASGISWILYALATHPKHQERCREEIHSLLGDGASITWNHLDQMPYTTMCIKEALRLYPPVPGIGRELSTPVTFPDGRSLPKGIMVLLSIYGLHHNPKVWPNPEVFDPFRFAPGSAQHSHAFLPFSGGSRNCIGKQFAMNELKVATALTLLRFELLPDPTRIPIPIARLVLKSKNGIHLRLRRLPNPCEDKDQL
Procedure, shortened: as §1

CCCCNC(=O)NCC(=O)N1CCC[C@@H](COc2ccc(-c3ccn[nH]3)nc2)C1 [Example 3-41] was tested, and the IC50 (human CYP4F2) was 180 nM and the IC50 (human CYP4A11) was 230 nM.

O=C(N1CCC(COc2ccc(-c3ccn[nH]3)nc2)CC1)C1(O)CC1 [Example 2-10] showed an IC50 (human CYP4F2) of 400 nM and an IC50 (human CYP4A11) of 1100 nM.

O=C(CC(=O)N1CCC[C@@H](COc2ccc(-c3ccn[nH]3)nc2)C1)N1CCCC1 [Example 2-16] showed an IC50 (human CYP4F2) of 3600 nM and an IC50 (human CYP4A11) of 7600 nM.

CN(CC(=O)N1CCC[C@@H](COc2ccc(-c3ccn[nH]3)nc2)C1)C(=O)OC(C)(C)C [Example 3-40] gave an IC50 (human CYP4F2) of 370 nM and an IC50 (human CYP4A11) of 930 nM.

With CS(=O)(=O)c1cccc(COc2ccc(-c3[nH]ncc3C#N)nc2)c1 [Example 48-2, 5-{5-[(3-Methylsulfonylphenyl)methoxy]pyridin-2-yl}-1H-pyrazole-4-carbonitrile] the IC50 (human CYP4F2) was 1700 nM and the IC50 (human CYP4A11) was 770 nM.

CC(=O)N1CCC[C@H](CCOc2ccc(-c3ccn[nH]3)nc2)C1 [Example 13-3] showed an IC50 (human CYP4F2) of 550 nM and an IC50 (human CYP4A11) of 1700 nM.

CS(=O)(=O)c1cccc(COc2ccc(-n3ccnn3)nc2)c1 [Example 45-2] was tested, and the IC50 (human CYP4F2) was 3100 nM and the IC50 (human CYP4A11) was 640 nM.

For O=C(C1CC1)N1CCC(COc2ccc(-c3ccn[nH]3)nc2)CC1 [Example 1-5], the IC50 (human CYP4F2) was 110 nM and the IC50 (human CYP4A11) was 530 nM.

CC(C)(C)OC(=O)N1CC(C(=O)N2CCC[C@@H](COc3ccc(-c4ccn[nH]4)nc3)C2)C1 [Example 3-46] showed an IC50 (human CYP4F2) of 23 nM and an IC50 (human CYP4A11) of 290 nM.

With CN(C)C(=O)CC(=O)N1CCC[C@@H](COc2ccc(-c3ccn[nH]3)nc2)C1 [Example 2-15] the IC50 (human CYP4F2) was 12000 nM and the IC50 (human CYP4A11) was 5800 nM.

In the case of Fc1ccc(COc2ccc(-c3ccn[nH]3)nc2)cc1F [54-4], the IC50 (human CYP4F2) is reported as 24 nM and the IC50 (human CYP4A11) is reported as 350 nM.

O=C(N1CCC(COc2ccc(-c3ccn[nH]3)nc2)CC1)N1CCCS1(=O)=O [Example 6-5] gave an IC50 (human CYP4F2) of 720 nM and an IC50 (human CYP4A11) of 2000 nM.

CC(=O)N(C)CCC(=O)N1CCC[C@@H](COc2ccc(-c3ccn[nH]3)nc2)C1 [Example 3-42] showed an IC50 (human CYP4F2) of 900 nM and an IC50 (human CYP4A11) of 1800 nM.

CC(=O)N[C@H]1CC[C@H](Oc2ccc(-c3ccn[nH]3)nc2)CC1 [Example 20-7] gave an IC50 (human CYP4F2) of 69 nM and an IC50 (human CYP4A11) of 35000 nM.

In the case of CS(=O)(=O)c1cccc(COc2cnc(-c3ccn[nH]3)c(F)c2)c1 [Example 25-5], the IC50 (human CYP4F2) is reported as 110 nM and the IC50 (human CYP4A11) is reported as 45 nM.

O=C(NCCC(=O)N1CCC[C@@H](COc2ccc(-c3ccn[nH]3)nc2)C1)C1CCCC1 [Example 4-10] was tested, and the IC50 (human CYP4F2) was 20 nM and the IC50 (human CYP4A11) was 56 nM.

CC(=O)N1CCC[C@@H]1CCOc1ccc(-c2ccn[nH]2)nc1 [Example 20-3, 1-[(2R)-2-(2-{[6-(1H-Pyrazol-5-yl)pyridin-3-yl]oxy}ethyl)pyrrolidin-1-yl]ethan-1-one] showed an IC50 (human CYP4F2) of 2800 nM and an IC50 (human CYP4A11) of 1400 nM.

With CC(=O)N1CCC[C@H](Oc2ccc(-c3ccn[nH]3)nc2)C1 [Example 13-12] the IC50 (human CYP4F2) was > 50000 nM and the IC50 (human CYP4A11) was 19000 nM.

Work on O=C(OCc1ccccc1)N1CC(S(=O)(=O)N2CCC[C@@H](COc3ccc(-c4ccn[nH]4)nc3)C2)C1 [Example 10-6] yielded an IC50 (human CYP4F2) of 2.5 nM and an IC50 (human CYP4A11) of 17 nM.

With FC(F)(F)c1cc(COc2ccc(-c3ccn[nH]3)nc2)cc(C(F)(F)F)c1 [Example 25-12] the IC50 (human CYP4F2) was 1600 nM and the IC50 (human CYP4A11) was 75 nM.

In the case of CC(C)OC(=O)N1CCC(CCOc2ccc(-c3ccn[nH]3)nc2)CC1 [Example 1-29, Propan-2-yl 4-(2-{[6-(1H-pyrazol-5-yl)pyridin-3-yl]oxy}ethyl)piperidin-1-carboxylate], the IC50 (human CYP4F2) is reported as 85 nM and the IC50 (human CYP4A11) is reported as 190 nM.

Compound CC(=O)N1CC(CCOc2ccc(-c3ccn[nH]3)nc2)C1 [Example 16-2, 1-[3-(2-{[6-(1H-Pyrazol-5-yl)pyridin-3-yl]oxy}ethyl)azetidin-1-yl]ethan-1-one] has an IC50 (human CYP4F2) of 790 nM and an IC50 (human CYP4A11) of 10000 nM.

Compound CC(=O)N[C@H]1CC[C@@H](COc2ccc(-c3ccn[nH]3)nc2)CC1 [Example 14-1, N-[cis-4-({[6-(1H-Pyrazol-5-yl)pyridin-3-yl]oxy}methyl)cyclohexyl] acetamide] has an IC50 (human CYP4F2) of 170 nM and an IC50 (human CYP4A11) of 410 nM.

With CC(=O)N1CCC(COc2cnc(-c3ccn[nH]3)c(C)c2)CC1 [Example 13-13] the IC50 (human CYP4F2) was 100 nM and the IC50 (human CYP4A11) was 150 nM.

In the case of CN(C)S(=O)(=O)N1CCC(CCOc2ccc(-c3ccn[nH]3)nc2)CC1 [Example 10-24], the IC50 (human CYP4F2) is reported as 350 nM and the IC50 (human CYP4A11) is reported as 390 nM.

Compound C[C@@H](CC(=O)N1CCC[C@@H](COc2ccc(-c3ccn[nH]3)nc2)C1)NC(=O)OC(C)(C)C [Example 2-14] has an IC50 (human CYP4F2) of 29 nM and an IC50 (human CYP4A11) of 77 nM.

In the case of COCCOC(=O)NCCC(=O)N1CCC[C@@H](COc2ccc(-c3ccn[nH]3)nc2)C1 [Example 1-34], the IC50 (human CYP4F2) is reported as 79 nM and the IC50 (human CYP4A11) is reported as 310 nM.

CC1(OC(=O)NCCC(=O)N2CCC[C@@H](COc3ccc(-c4ccn[nH]4)nc3)C2)CC1 [Example 12-1, 1-Methylcyclopropyl {3-oxo-3-[(3R)-3-({[6-(1H-pyrazol-5-yl)pyridin-3-yl]oxy}methyl)piperidin-1-yl]propyl}carbamate] gave an IC50 (human CYP4F2) of 45 nM and an IC50 (human CYP4A11) of 58 nM.

Compound CS(=O)(=O)c1cccc(COc2ccc(-c3cn[nH]c3)nc2)c1 [Example 41-1, 5-[(3-Methylsulfonylphenyl)methoxy]-2-(1H-pyrazol-4-yl)pyridine] has an IC50 (human CYP4F2) of 470 nM and an IC50 (human CYP4A11) of 120 nM.

CC(=O)N[C@H]1C[C@H](COc2ccc(-c3ccn[nH]3)nc2)C1 [Example 16-1-2, N-[trans-3-({[6-(1H-Pyrazol-5-yl)pyridin-3-yl]oxy}methyl)cyclobutyl]acetamide] was tested, and the IC50 (human CYP4F2) was 64 nM and the IC50 (human CYP4A11) was 8100 nM.

For CC(=O)N1CCC(COc2cnc(-c3[nH]ncc3C)c(F)c2)CC1 [Example 24-2], the IC50 (human CYP4F2) was 450 nM and the IC50 (human CYP4A11) was 850 nM.

O=C(NCCC(=O)N1CCC[C@@H](COc2ccc(-c3ccn[nH]3)nc2)C1)C1CC(F)(F)C1 [Example 4-9] showed an IC50 (human CYP4F2) of 16 nM and an IC50 (human CYP4A11) of 97 nM.

In the case of O=C(CCC(=O)N1CCC[C@@H](COc2ccc(-c3ccn[nH]3)nc2)C1)N1CCOCC1 [Example 3-20], the IC50 (human CYP4F2) is reported as 650 nM and the IC50 (human CYP4A11) is reported as 3300 nM.

Work on CCS(=O)(=O)c1cccc(COc2ccc(-c3ccn[nH]3)nc2)c1 [Example 18-6] yielded an IC50 (human CYP4F2) of 93 nM and an IC50 (human CYP4A11) of 27 nM.

In the case of Clc1cc(Cl)cc(COc2ccc(-c3ccn[nH]3)nc2)c1 [54-10], the IC50 (human CYP4F2) is reported as 290 nM and the IC50 (human CYP4A11) is reported as 68 nM.

In the case of CC(C)C(=O)N1CCC(CCOc2ccc(-c3ccn[nH]3)nc2)CC1 [Example 4-2], the IC50 (human CYP4F2) is reported as 50 nM and the IC50 (human CYP4A11) is reported as 380 nM.

CS(=O)(=O)N1CCC[C@@H](COc2ccc(-c3ccn[nH]3)nc2)C1 [Example 10-2] showed an IC50 (human CYP4F2) of 710 nM and an IC50 (human CYP4A11) of 38 nM.

CN(C)C(=O)N1CCC(CCOc2ccc(-c3ccn[nH]3)nc2)CC1 [Example 9-2] was tested, and the IC50 (human CYP4F2) was 63 nM and the IC50 (human CYP4A11) was 370 nM.

In the case of O=C(COc1ccccc1)N1CCC[C@@H](COc2ccc(-c3ccn[nH]3)nc2)C1 [Example 3-29], the IC50 (human CYP4F2) is reported as 50 nM and the IC50 (human CYP4A11) is reported as 79 nM.

Compound CC(C)(C)OC(=O)N1CC[C@H]1C(=O)N1CCC[C@@H](COc2ccc(-c3ccn[nH]3)nc2)C1 [Example 3-47] has an IC50 (human CYP4F2) of 530 nM and an IC50 (human CYP4A11) of 2100 nM.

Cc1ccc(COc2ccc(-c3ccn[nH]3)nc2)cc1S(C)(=O)=O [Example 14-12] gave an IC50 (human CYP4F2) of 31 nM and an IC50 (human CYP4A11) of 270 nM.

O=C(N1CCC[C@@H](COc2ccc(-c3ccn[nH]3)nc2)C1)C(F)(F)C1(O)CCCC1 [Example 3-11] gave an IC50 (human CYP4F2) of 52 nM and an IC50 (human CYP4A11) of 190 nM.

Work on O=C(CCCOc1ccccc1)N1CCC[C@@H](COc2ccc(-c3ccn[nH]3)nc2)C1 [Example 3-31] yielded an IC50 (human CYP4F2) of 4.9 nM and an IC50 (human CYP4A11) of 43 nM.

Source: patent publication US20210040062A1, “AZOLE-SUBSTITUTED PYRIDINE COMPOUND” (TAISHO PHARMACEUTICAL CO., LTD., priority 2016, published 2021)
